pEC50: −log10 of the molar value.
Columns and labels:
[1] = biological target: T1, hFXR (Homo sapiens, UniProt Q96RI1); assay: FXR transactivation on HepG2 cells (luciferase reporter); format: cell-based
T1 construct: expressed in transfected cells; host or cells: HepG2
T1 sequence (Q96RI1 1-486): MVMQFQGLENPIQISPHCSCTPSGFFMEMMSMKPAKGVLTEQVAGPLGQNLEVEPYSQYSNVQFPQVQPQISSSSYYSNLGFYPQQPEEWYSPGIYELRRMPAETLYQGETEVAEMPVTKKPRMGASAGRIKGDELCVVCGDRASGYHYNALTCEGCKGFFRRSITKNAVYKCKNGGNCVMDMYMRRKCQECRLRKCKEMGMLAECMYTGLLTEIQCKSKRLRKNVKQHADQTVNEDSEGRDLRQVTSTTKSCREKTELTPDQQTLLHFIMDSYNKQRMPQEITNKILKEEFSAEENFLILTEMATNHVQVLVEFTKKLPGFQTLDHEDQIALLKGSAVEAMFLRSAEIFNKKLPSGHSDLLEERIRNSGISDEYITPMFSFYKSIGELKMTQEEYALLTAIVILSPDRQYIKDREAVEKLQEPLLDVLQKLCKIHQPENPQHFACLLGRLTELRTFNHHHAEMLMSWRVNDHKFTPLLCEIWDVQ
T1 sequence (P19793 1-462 partner): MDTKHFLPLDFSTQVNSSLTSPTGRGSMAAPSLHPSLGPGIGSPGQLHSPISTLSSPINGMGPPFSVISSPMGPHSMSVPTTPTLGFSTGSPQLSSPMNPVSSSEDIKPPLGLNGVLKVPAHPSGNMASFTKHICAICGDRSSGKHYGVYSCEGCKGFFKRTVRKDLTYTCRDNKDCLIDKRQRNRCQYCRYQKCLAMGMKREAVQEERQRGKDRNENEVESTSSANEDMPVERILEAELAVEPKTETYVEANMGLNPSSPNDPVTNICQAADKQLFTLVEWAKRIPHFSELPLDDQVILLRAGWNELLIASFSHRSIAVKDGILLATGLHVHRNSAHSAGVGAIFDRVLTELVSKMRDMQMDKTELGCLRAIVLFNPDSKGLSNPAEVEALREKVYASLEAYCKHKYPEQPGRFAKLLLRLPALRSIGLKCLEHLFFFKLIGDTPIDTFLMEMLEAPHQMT
Protocol: HepG2 (HB, 8065 from ATCC), an immortalized human epatocarcinoma cell line, was cultured and maintained at 37°C and 5% CO2 in E-MEM additioned with 10% FBS, 1% glutamine, and 1% penicillin/streptomycin. For FXR mediated transactivation, HepG2 cells were plated at 5 × 10^4 cells/well in a 24 well plate. Cells were transfected with 200 ng of the reporter vector p(hsp27)-TK-LUC containing a FXR response element (IR1) cloned from the promoter of heat shock protein 27 (hsp27), 100 ng of pSG5-FXR, 100 ng of pSG5-RXR, and 100 ng of pGL4.70 (Promega), a vector encoding the human Renilla gene. For GPBAR1 mediated transactivation, HepG2 cells were plated at 5 × 10^4 cells/well in a 24 well-plate and transfected with 200 ng of pGL4.29 (Promega), a reporter vector containing a cAMP response element (CRE) that drives the transcription of the luciferase reporter gene luc2P, with 100 ng of pCMVSPORT6-human GPBAR1, and with 100 ng of pGL4.70 Renilla. […]. TLCA (10 μM) was used as a positive control for GPBAR1 activity.
HepG2 cells were transfected as described above and then treated with increasing concentrations of compounds. At 18 h post stimulations, cellular lysates were assayed for luciferase and Renilla activities using the Dual-Luciferase Reporter assay system (E1980, Promega). Luminescence was measured using Glomax 20/20 luminometer (Promega). Luciferase activities were normalized with Renilla activities.

[2] = tested on: FXR target genes SHP, OSTα, BSEP in HepG2 cells; assay: RT-PCR of FXR target genes in HepG2 cells; format: cell-based, human; conditions: 1 μM, 18 h, versus 6-ECDCA 1 μM
Protocol: HepG2 cells were plated at 1 × 10^6 cells/well in a six well plate. After an overnight incubation, cells were starved and then stimulated for 18 h with compound 2 at 1 μM. Total RNA was isolated from HepG2 cells or liver tissues using the TRIzol reagent according to the manufacturer’s specifications (Invitrogen). One microgram of purified RNA was treated with DNase-I and reverse transcribed with Superscript II (Invitrogen). For Real Time PCR, 10 ng template was dissolved in 25 μL containing 200 nmol/L of each primer and 12.5 μL of 2× SYBR FAST Universal ready mix (Invitrogen). All reactions were performed in triplicate, and the thermal cycling conditions were as follows: 2 min at 95°C, followed by 40 cycles of 95°C for 20 s and 60°C for 30 s in StepOnePlus (Applied Biosystems). The relative mRNA expression was calculated accordingly to the Ct method. Primers were designed using the software PRIMER3^1 using published data obtained from the NCBI database. Forward and reverse primer sequences were the following: human GAPDH, […] and […]; human BSEP, […] and […]; human OSTα, […] and […]; human SHP, […] and […]; mouse NTCP, […] and […]; mouse CYP7A1, […] and […]; mouse FGF21, […] and […]; mouse GAPDH, […] and […]; mouse BSEP, […] and […]; mouse OSTα, […] and […]; mouse SHP, […] and […].

**Q.** How did the pEC50 ([1]; 10 nM to 25 μM, 18 h) turn out when `CC[C@H]1[C@@H](O)[C@@H]2[C@H](CC[C@]3(C)[C@@H]([C@H](C)CCC(=O)O)CC[C@@H]23)[C@@]2(C)CC[C@H](N=[N+]=[N-])C[C@@H]12` [compound 2, 3β-azido-6α-ethyl-7α-hydroxy-5β-cholan-24-oic acid] was run?
**A.** The pEC50 was 6.07.

**Q.** And the “FXR transactivation compared with 6-ECDCA” value ([1]; 10 μM)?
**A.** Its value is “equipotent with 6-ECDCA”.

**Q.** And the “modulation of BSEP mRNA expression” value [2]?
**A.** Its value is “more potent than 6-ECDCA”.

**Q.** What about the “modulation of OSTα mRNA expression” value [2] of the same compound?
**A.** The value was “more potent than 6-ECDCA”.

**Q.** What about the “modulation of SHP mRNA expression” value [2] of the same compound?
**A.** The value was “equipotent with 6-ECDCA”.
